{"source": "the NIST ThermoML archive (doi:10.1021/acs.jced.8b00977)", "key": {"[1]": {"assay": "Molar enthalpy of transition or fusion", "settings": "Crystal; DSC"}, "[2]": {"settings": "Crystal; DSC"}}, "note": "± gives the expanded uncertainty stated by the source.", "data": [{"molecule": "CC(=O)CC(c1ccccc1)c1c([O-])c2ccccc2oc1=O.[Na+]", "note": "(configuration not stated) [warfarin sodium]", "values": [{"measurement": "Molar enthalpy of transition or fusion", "setting": "[1]", "result": "17 ± 0.884", "unit": "kcal/mol"}, {"measurement": "Triple point temperature", "setting": "[2]", "result": "468.87 ± 1", "unit": "K"}]}]}
